Columns and labels:
[1] = test system: dopamine receptors; test: PETT baboon studies: striatum and cerebellum radioactivity after i.v. [^18 F]-N-methylspiroperidol, with (-)- or (+)-butaclamol pretreatment; conditions: for effect of butaclamol pretreatment on striatal distribution of [^18 F]-N-methylspiroperidol: 0.5 mg/kg i.v. pretreatment
From the text: (§1) A young adult (12 kg) female baboon (Papio anubis) was anesthesized initially with ketamine and subsequently maintained under halothane/nitrous oxide anesthesia for two PETT studies. […] Pett scans were made continually for 4 hrs from the time of radioisotope injection.

[2] = test system: dopamine receptor; conditions: cited from earlier work; for prevention of striatal retention of [^18 F]spiroperidol and [^18 F]benperidol: prior administration of butaclamol enantiomer; for retention by the striatum compared with [^18 F]haloperidol: region of high dopamine receptor density
[3] = Metabolic stability and uptake in rat brain (striatum, cerebellum); format: in vivo, rat (male BNL R strain); conditions: rat brain
[4] = Baboon plasma analyses (total plasma radioactivity clearance and unchanged radioligand); conditions: baboon, plasma, plasma radioactivity due to unaltered radioligand, baboon plasma, 10 mins after injection
From the text: as §1
Blood was sampled from the femoral artery at initial intervals of 5 secs. Aliquots of plasma were counted to determine the total plasma radioactivity of clearance curves.

SMILES	effect of butaclamol pretreatment on striatal distribution of [^18 F]-N-methylspiroperidol [1]	prevention of striatal retention of [^18 F]spiroperidol and [^18 F]benperidol [2]	crossing of the blood brain barrier compared with [^18 F]haloperidol ([2]; in vivo)	retention by the striatum compared with [^18 F]haloperidol [2]	other results
CC(C)(C)C1(O)CCN2CC3c4ccccc4CCc4cccc(c43)C2C1 (single isomer, unassigned; (+)) [(+)-butaclamol, reference compound]	stereospecific blocking of dopamine receptors in the striatum	prevented			
CC(C)(C)C1(O)CCN2CC3c4ccccc4CCc4cccc(c43)C2C1 (single isomer, unassigned; (-)) [(-)-butaclamol, reference compound]	normal distribution of radioligand	not			
O=C(CCCN1CCC(n2c(=O)[nH]c3ccccc32)CC1)c1ccc([18F])cc1 [[^18 F]benperidol]			to a lesser extent than [^18 F]haloperidol	retained to a greater degree by the striatum	
O=C(CCCN1CCC2(CC1)C(=O)NCN2c1ccccc1)c1ccc([18F])cc1 [[^18 F]spiroperidol]			to a lesser extent than [^18 F]haloperidol	retained to a greater degree by the striatum	metabolism in the rat brain [3]: very little metabolism; remaining at 10 min [4]: 72%; specifically bound component of radioactivity in the striatum (striatum minus cerebellum) ([1]; 4 hrs after injection): still increasing at 4 hrs after injection; uptake into the brain ([2]; baboons): 0.5-1.0 % of the injected dose; clearance from the striatal areas ([2]; up to 8 hrs. after injection): no clearance
O=C(CCCN1CCC(O)(c2ccc(Cl)cc2)CC1)c1ccc(F)cc1 [haloperidol]					brain uptake compared with spiroperidol or benperidol ([2]; in vivo): higher than spiroperidol or benperidol; egress from the brain ([2]; in vivo): rapid egress; nonspecific binding ([2]; in vivo): relatively high nonspecific binding

Source: patent USH1209H, “No-carrier-added (18F)-N-methylspiroperidol” (The United States of America as represented by the United …, priority 1985, dated 1993)
